Test results published in PMC6712885, “Improved homology modeling of the human & rat EP4 prostanoid receptors” (BMC Molecular and Cell Biology, 2019).
“And” between values parts separate entries of the source, which are not always exact repeats. Equal values may be shown once. Read-outs that look alike come from different tables or passages of the source.

Legend:
[1] = target: T1, hEP4 receptor (Homo sapiens, UniProt P35408); parameters: expressed in transfected cells; host or cells: HEK293T/17; conditions: reported within cited reference; cited from earlier work
T1 sequence (P35408 whole entry): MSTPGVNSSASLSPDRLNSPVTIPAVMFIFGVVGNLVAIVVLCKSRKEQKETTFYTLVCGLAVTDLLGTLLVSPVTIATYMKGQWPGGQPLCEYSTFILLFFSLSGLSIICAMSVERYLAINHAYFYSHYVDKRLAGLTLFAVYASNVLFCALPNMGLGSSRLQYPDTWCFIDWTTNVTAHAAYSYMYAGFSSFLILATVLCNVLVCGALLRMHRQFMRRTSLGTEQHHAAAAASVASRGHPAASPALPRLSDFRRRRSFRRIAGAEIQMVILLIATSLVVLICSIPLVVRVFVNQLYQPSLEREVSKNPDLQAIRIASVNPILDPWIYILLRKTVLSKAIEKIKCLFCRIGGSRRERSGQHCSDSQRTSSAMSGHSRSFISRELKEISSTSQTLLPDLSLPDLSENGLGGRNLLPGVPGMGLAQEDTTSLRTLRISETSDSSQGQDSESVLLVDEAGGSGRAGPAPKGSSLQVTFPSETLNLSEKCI

[2] = target: T2, Rat EP4 Receptor (Rattus norvegicus, UniProt P43114); parameters: method as in PMID 29636218; conditions: reported within cited reference; cited from earlier work
T2 construct: expressed in transfected cells; host or cells: HEK293T/17
T2 sequence (P43114 whole entry): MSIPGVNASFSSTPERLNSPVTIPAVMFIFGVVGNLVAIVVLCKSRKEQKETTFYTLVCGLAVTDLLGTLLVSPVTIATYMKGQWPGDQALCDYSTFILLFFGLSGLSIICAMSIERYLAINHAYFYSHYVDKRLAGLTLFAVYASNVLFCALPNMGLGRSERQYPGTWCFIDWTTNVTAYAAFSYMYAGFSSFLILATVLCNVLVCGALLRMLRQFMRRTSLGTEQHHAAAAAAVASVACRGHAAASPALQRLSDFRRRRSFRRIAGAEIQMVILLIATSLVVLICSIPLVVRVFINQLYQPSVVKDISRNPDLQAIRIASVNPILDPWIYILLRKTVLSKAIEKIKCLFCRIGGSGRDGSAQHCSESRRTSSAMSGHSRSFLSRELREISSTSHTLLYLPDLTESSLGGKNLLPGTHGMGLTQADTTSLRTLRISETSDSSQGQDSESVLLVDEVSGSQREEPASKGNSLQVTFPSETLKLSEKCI

[3] = target: T1, hEP4 receptor; assay: cell-based; format: cell-based; parameters: expressed in transfected cells; host or cells: HEK293T/17
Procedure: (§1) Human and rat EP4 receptors were expressed in HEK293T/17 cells separately by reverse transfection on 96-well plates with optimized amounts of cDNA expression constructs immobilized on the surface. Activation of EP4 receptor in this cell line was measured as an increase in cAMP levels using an ELISA kit (Cayman Chemical, Ann Arbor MI). In short, the transfection plates were seeded with 50,000–80,000 cells/well in reduced serum medium containing 0.5% FBS and incubated overnight at 37 °C with 5% CO2. Before stimulation with test compounds, media was aspirated from the wells and replaced with reduced serum media containing 0.5 mM 3-isobutyl 1-methylxanthine (IBMX). Compound dilution series were prepared in the same IBMX containing media at 2X final concentration and applied to the wells in equal volume. Stimulation media were aspirated from the plates after 30 min incubation with test compounds, and the plates with cells were placed on dry ice and then put into − 80 °C freezer for > 2 h. Cell lysates were prepared on thawed plates by adding 200 μl/well ice-cold ELISA buffer with 0.05% Tween-20 followed by titration. The cell lysates were then transferred to a polypropylene plate and clarified by centrifugation at 1000×g for 15 min at 4 °C. Supernatant was transferred into a pre-coated mouse Anti-Rabbit IgG ELISA plate together with serial dilutions of cAMP for a standard curve in triplicate. cAMP-acetylcholinesterase conjugate (cAMP tracer) was added, followed by cAMP EIA antiserum. Plates were incubated overnight with shaking. After washing 5 times in washing buffer, Ellman’s reagent was added to the well and shake for 90 min under cover before measuring absorbance at 405 nm on a plate reader.

[4] = target: T1, hEP4 receptor; assay: Radioligand ([H^3]-PGE2) competition binding, hEP4 membranes of HEK293 cells; parameters: expressed in transfected cells; host or cells: HEK293; conditions: Human EP4 Receptor; displacement of 0.5 nM [H^3]-PGE2, Cheng Prusoff
Procedure: (§2) Radioligand binding experiments were carried out versus the hEP4 and rEP4 receptors. […] We also implemented the rEP4 receptor binding studies. Equilibrium competition binding assays were conducted to determine the inhibition constants (Ki) for ligand interactions with EP4 receptors sourced from membranes (160,000×g) of HEK293 cells overexpressing recombinant hEP4 or rEP4 receptors. […] Assays were performed in 10 mM 2-(N-morpholino) ethanesulphonic acid (MES) buffer containing 1 mM EDTA and 10 mM MnCl2, pH 6.0, during 120 min at room temperature. Ki was calculated using the Cheng Prusoff equation where Ki = IC50/(1 […] L/Kd).

[5] = target: T2, Rat EP4 Receptor; assay: EP4 receptor functional activation, cAMP ELISA in transfected HEK293T/17 cells; format: cell-based
Procedure: as §1

[6] = target: T3, rEP4 receptor (Rattus norvegicus, UniProt P43114); assay: Radioligand ([H^3]-PGE2) competition binding, rEP4 membranes of HEK293 cells
T3 construct: expressed in transfected cells; host or cells: HEK293
T3 sequence (P43114 whole entry): as above
Procedure: as §2

[7] = target: T1, hEP4 receptor; parameters: expressed in transfected cells; host or cells: HEK293T/17; conditions: reported within cited reference; cited from earlier work; remark: listed apart in the source
[8] = Human EP4 Receptor, cAMP response assay, value ± spread (n), read-out: EC50
[9] = Rat EP4 Receptor, displacement of 0.5 nM [H^3]-PGE2, Cheng Prusoff, read-out: Ki

Row | Structure (SMILES) | EC50 [3, 8] | Ki [4] | EC50 [5] | Ki [6, 9] | other results
1 | CCCCC(C)(O)C/C=C/[C@H]1[C@H](O)CC(=O)[C@@H]1CCCCCCC(=O)OC (mixture of isomers) [Misoprostol] | – | – | – | – | Ki [1]: 4340 nM; Ki [2]: 26300 nM
2 | CCCCC[C@H](O)/C=C/[C@H]1CCC(=O)N1CCCCCCC(=O)O [8-aza-11-deoxy-PGE1] | 1.77 ± 0.32 nM | 1.7 nM | 2.64 ± 0.62 nM | – | –
3 | CCCCC[C@H](O)/C=C/[C@H]1CCC(=O)[C@@H]1CCCCCCC(=O)O [11-deoxy-PGE1] | 0.79 ± 0.19 nM | 0.13 nM | 1.13 ± 0.15 nM | 0.21 nM | –
4 | CCCCC[C@H](O)/C=C/[C@H]1CCC(=O)[C@@H]1C/C=C\CCCC(=O)O [11-deoxy-PGE2] | 0.66 ± 0.11 nM | 0.23 nM | 1.32 ± 0.24 nM | 0.42 nM | –
5 | Cc1cc(Cl)ccc1-c1ccc([C@H](O)/C=C/[C@H]2CCC(=O)N2CCCCCCC(=O)O)cc1 [CAY10684] | 0.18 ± 0.1 nM | 0.061 nM | 0.16 ± 0.06 nM | 0.057 nM | –
6 | CCOc1c2c(c(OCC)c3ccccc13)C(=O)N(c1ccc(CC(=O)O)cc1)C2 [CCL17464,2] | – | – | – | – | Ki [7]: 19.9 nM
7 | CCCCCCOc1c2c(c(OCCCCCC)c3ccccc13)C(=O)N(c1ccc(CC(=O)O)cc1)C2 [CCL17464,19] | – | – | – | – | Ki [7]: > 6310 nM
8 | CCCCC[C@H](O)/C=C/[C@H]1[C@H](O)CC(=O)[C@@H]1CCCCCCC(=O)O [PGE1, Prostaglandin E1] | – | 0.13 nM | – | – | EC50 [3]: 0.42 ± 0.72 nM
9 | CCCCC[C@H](O)/C=C/[C@H]1[C@H](O)CC(=O)[C@@H]1C/C=C\CCCC(=O)O [PGE2, prostaglandin E2] | – | – | – | – | Ki [6]: 0.19 nM
10 | COCc1cccc(C[C@H](O)/C=C/[C@H]2[C@H](O)CC(=O)[C@@H]2CCSCCCC(=O)O)c1 [Rivenprost (free Acid)] | 0.142 nM and 0.14 nM | 0.37 nM | 1.16 ± 0.29 nM | 0.35 nM | –
11 | CS(=O)(=O)NC(=O)CCC/C=C\C[C@H]1C(=O)C[C@@H](O)[C@@H]1/C=C/[C@@H](O)COc1ccccc1 [Sulprostone] | – | – | – | – | Ki [1]: 3310 nM; Ki [2]: 43600 nM
